According to patent US20050019314A1, “Method and compositions for treating respiratory pathologies” (priority 2001, published 2005):
Marks after values point to notes of the source that are not given here.

Assays:
Format in all cases: in vivo, rat
male Wistar rats [1] = assay: Immune cell accumulation in bronchoalveolar lavage fluid induced by intranasal instillation of SLIGRL in rats
Protocol: At time t=10 days, the four groups of animals were given a slow intranasal instillation of 200 μl of physiologic serum containing (groups 2 and 4) or not containing (groups 1 and 3) 0.2 mg of SLIGRL.
At time t=3 h after intranasal instillation, animals were anesthetized for bronchoalveolar lavage, then sacrificed.

male Wistar rats [2] = assay: Immune cell accumulation in bronchoalveolar lavage fluid induced by intratracheal instillation of taurocholate (ML-7)
Protocol: For this experiment, three groups of 8 male Wistar rats (250-300 g) were given either ML-7 by the IP route at a dose of 1 mg/kg/12 h for 36 hours, or the vehicle alone. […] At time t=2 h after the intratracheal instillation, animals were anesthetized for bronchoalveolar lavage, then sacrificed.

male Wistar rats [3] = assay: Pulmonary paracellular permeability to 125I-labelled human serum albumin after intratracheal Pseudomonas aeruginosa LPS
Protocol: For this experiment, three groups of 6 male Wistar rats (200-225 g) were pretreated either with ML-7 by the IP route (3 mg/kg then 1 mg/kg 3 times a day for 48 h) or the vehicle (ethanol 10%). One hour after the next-to-last administration of ML-7, under urethane anesthesia ([…] IP), a slow intratracheal infusion of 150 μl of an iso-osmolar solution (5% bovine albumin+PBS) containing the tracer and containing (2 groups) or not containing (control group) LPS (1 μg/rat) was given.

male Wistar rats [4] = assay: Immune cell accumulation in bronchoalveolar lavage fluid induced by intratracheal infusion of Pseudomonas aeruginosa LPS
Protocol: For this experiment, three groups of 7 male Wistar rats (200-225 g) were used. Animals were pretreated with either ML-7 by the IP route (3 mg/kg then 1 mg/kg, 3 times a day for 48 h) or with the vehicle (ethanol 10%). One hour after the next-to-last ML-7 administration, under urethane anesthesia ([…]), a slow intratracheal infusion of 150 μl of an iso-osmolar solution (5% bovine albumin+PBS) containing (2 groups) or not containing (control group) LPS (1 μg/rat) was given. Four hours after the intratracheal infusion, bronchoalveolar lavage was performed.

male Wistar rats [5] = assay: Immune cell accumulation in bronchoalveolar lavage fluid induced by intratracheal infusion of taurocholate (PD-98059)
Protocol: For this experiment, three groups of 8 male Wistar rats (250-300 g) were given either PD-98059 by the IP route (1 mg/kg/12 h, 36 h) or the vehicle alone (DMSO).

[6] = Taurine 10% in drinking water 10 days + 0.9% NaCl IN, BAL 3 h
[7] = Taurine 10% in drinking water 10 days + PAR 2 (SLIGRL) IN, BAL 3 h
[8] = PAR 2 (SLIGRL) 0.2 mg/kg IN alone, no taurine, BAL 3 h after instillation
[9] = ML-7 1 mg/kg/12 h, 36 h IP + taurocholate intratracheal, BAL 2 h, mean ± SD
[10] = ML-7 (3 mg/kg then 1 mg/kg 3 times a day for 48 h IP) + LPS, BAL 4 h, mean ± SEM
[11] = PD-98059 1 mg/kg/12 h, 36 h IP + taurocholate, BAL 2 h, mean ± SEM

With `NCCS(=O)(=O)O` [Taurine, taurine] the “Eosinophils in BAL” value (male Wistar rats [1]; [6]) was 17 ± 1 mm^3, the “Lymphocytes in BAL” value (male Wistar rats [1]; [6]) was 22 ± 8 mm^3 and the “Macrophages in BAL” value (male Wistar rats [1]; [6]) was 1651 ± 72 mm^3. The “Neutrophils in BAL” value (male Wistar rats [1]; [6]) was 34 ± 3 mm^3, the “Tot. Leucocytes in BAL” value (male Wistar rats [1]; [6]) was 1728 ± 111 mm^3 and the “Eosinophils in BAL” value (male Wistar rats [1]; [7]) was 17 ± 1* mm^3. For the same compound, the “Lymphocytes in BAL” value (male Wistar rats [1]; [7]) was 22 ± 8* mm^3, the “Macrophages in BAL” value (male Wistar rats [1]; [7]) was 1967 ± 103* mm^3 and the “Neutrophils in BAL” value (male Wistar rats [1]; [7]) was 34 ± 3* mm^3. For the same compound, the “Tot. Leucocytes in BAL” value (male Wistar rats [1]; [7]) was 2086 ± 134* mm^3 and the “SLIGRL-induced accumulation of eosinophils and neutrophils in BAL (in words)” value (male Wistar rats [1]; animals treated with taurine, t = 3 h) was “not in animals treated with taurine”.

In the case of SLIGRL [PAR 2], the “Eosinophils in BAL” value (male Wistar rats [1]; [8]) is reported as 32 ± 2^+ mm^3, the “Lymphocytes in BAL” value (male Wistar rats [1]; [8]) is reported as 297 ± 28 mm^3 and the “Macrophages in BAL” value (male Wistar rats [1]; [8]) is reported as 5559 ± 63^+ mm^3. For the same compound, the “Neutrophils in BAL” value (male Wistar rats [1]; [8]) was 656 ± 41^+ mm^3, the “Tot. Leucocytes in BAL” value (male Wistar rats [1]; [8]) was 6464 ± 99^+ mm^3 and the “eosinophils and neutrophils in bronchoalveolar lavage fluid (in words)” value (male Wistar rats [1]; intranasal SLIGRL, control animals (no taurine), t = 3 h) was “results in accumulation”.

With `O=S(=O)(c1cccc2c(I)cccc12)N1CCCNCC1` [ML-7, 1-(5-iodonaphtalène-1-sulfonyl)-1H-hexahydro-1,4-diazepine] the “Leucocytes in BAL” value (male Wistar rats [2]; [9]) was 4160 ± 573, the “Lymphocytes in BAL” value (male Wistar rats [2]; [9]) was 101 ± 44 and the “Macrophages in BAL” value (male Wistar rats [2]; [9]) was 3585 ± 398. The “Neutrophils in BAL” value (male Wistar rats [2]; [9]) was 473 ± 216, the “intra-alveolar accumulation of immune cells (in words)” value (male Wistar rats [2]; ML-7 IP + intratracheal taurocholate) was “significantly reduces” and the “effect on vascular endothelial cells (endothelium permeability, tone, pulmonary circulating hemodynamics)” value (male Wistar rats [3]; ML-7 IP + LPS, concluded from unchanged plasma radioactivity) was “does not present effect”. For the same compound, the “LPS-induced increase in pulmonary permeability” value (male Wistar rats [3]; ML-7 pretreatment IP (3 mg/kg then 1 mg/kg 3 times a day for 48 h) + LPS) was “inhibited”, the “Leucocytes in BAL” value (male Wistar rats [4]; [10]) was 17243 ± 2956 cells/mm^3 BAL and the “Lymphocytes in BAL” value (male Wistar rats [4]; [10]) was 902 ± 375 cells/mm^3 BAL. For the same compound, the “Macrophages in BAL” value (male Wistar rats [4]; [10]) was 10708 ± 1713 cells/mm^3 BAL, the “Neutrophils in BAL” value (male Wistar rats [4]; [10]) was 6587 ± 1749 cells/mm^3 BAL and the “LPS-induced increase in the number of neutrophils in BAL (in words)” value (male Wistar rats [4]; ML-7 pretreatment IP + LPS) was “reduced”.

In the case of `COc1cccc(-c2cc(=O)c3ccccc3o2)c1N` [PD-98059, 2-(amino-3-methoxyphenyl)-4H-1-benzopyran-4-one], the “Eosinophils in BAL” value (male Wistar rats [5]; [11]) is reported as 27 ± 27 cells/mm^3 BAL, the “Leucocytes in BAL” value (male Wistar rats [5]; [11]) is reported as 21424 ± 3164 cells/mm^3 BAL and the “Lymphocytes in BAL” value (male Wistar rats [5]; [11]) is reported as 774 ± 183 cells/mm^3 BAL. For the same compound, the “Macrophages in BAL” value (male Wistar rats [5]; [11]) was 17956 ± 2465 cells/mm^3 BAL, the “Neutrophils in BAL” value (male Wistar rats [5]; [11]) was 2652 ± 600 cells/mm^3 BAL and the “intra-alveolar accumulation of immune cells (in words)” value (male Wistar rats [5]; PD-98059 IP + intratracheal taurocholate) was “reduces”.
